The values below come from patent US10669296B2, “LXR agonists and uses thereof” (Rgenix, Inc., priority 2014, dated 2020).

Some results are limits rather than exact numbers.

The subject of this assay is ApoE. In words: ApoE gene expression analysis by qRT-PCR in MeWo cancer cells. It counts as cell-based. Particulars: 48 h; for Emax at 1 µM / Emax at 10 µM: read-out: ApoE gene expression in relation to GW3965 at 1 μM (100%). As to the method:
Cancer cells (MeWo) were treated in presence of drug or control (DMSO) at indicated concentrations for 48 h. RNA was extracted from whole cell lysates using the Total RNA Purification Kit (17200, Norgen, Thorold, Canada). 600 ng of total RNA was then reverse transcribed into cDNA using the Verso cDNA Synthesis Kit (AB-1453/B, Fisher Scientific). 6 ng of the resulting cDNA was then mixed with SYBR green PCR Master Mix (4309155, Applied Biosystems) and the appropriate primers. Each reaction was performed in quadruplicate, and mRNA expression was quantified by performing real-time PCR amplification using a StepOne Plus Real-Time PCR System (Applied Biosystems). GAPDH was used as an endogenous control for normalization. EC50 values were calculated using Prism6 software and plotting expression values versus drug concentration. The following primers were used: [table] The results are shown in relation to GW3965 ApoE expression at 1 μM (i.e. 100%).
(In general: Real-time PCR tracks product formation cycle by cycle.)

Take `[2H]C([2H])(O)c1c(F)cc(OCCCN(Cc2cccc(C(F)(F)F)c2Cl)CC(c2ccccc2)c2ccccc2)cc1S(C)(=O)=O` [Compound 84, {4-[3-({[2-chloro-3-(trifluoromethyl)phenyl]methyl}(2,2-diphenylethyl)amino)propoxy]-2-fluoro-6-methanesulfonylphenyl}(^2H2)methanol]: the Emax at 1 µM (Homo sapiens, MeWo, 1 μM) was greater than 40%. Also, the Emax at 10 µM (Homo sapiens, MeWo, 10 μM) is greater than 40%.

In the case of `CS(=O)(=O)c1cc(OCCCN(Cc2cccc(C(F)(F)F)c2)CC(c2ccccc2)c2ccccc2)cc(F)c1CO` [Compound 73, (4-{3-[(2,2-diphenylethyl)({[3-(trifluoromethyl)phenyl]methyl})amino]propoxy}-2-fluoro-6-methanesulfonylphenyl)methanol], the Emax at 1 µM (Homo sapiens, MeWo, 1 μM) was greater than 80%. In addition, where the note is “Homo sapiens, MeWo, 10 μM”, the Emax at 10 µM was greater than 80%.

Consider `O=C(O)c1cccc(OCCCN(Cc2cccc(C(F)(F)F)c2Cl)CC(c2ccccc2)c2ccccc2)c1` [Compound 3, 3-[3-({[2-chloro-3-(trifluoromethyl)phenyl]methyl}(2,2-diphenylethyl)amino)propoxy]benzoic acid], for which the Emax at 1 µM (Homo sapiens, MeWo, 1 μM) is greater than 40%. Further, the Emax at 10 µM (Homo sapiens, MeWo, 10 μM) was less than 40%.

As usually defined, the EC50 is the concentration needed to bring the measured effect to its halfway point. `CS(=O)(=O)N1CC(OCCCN(Cc2cccc(C(F)(F)F)c2Cl)CC(c2ccccc2)c2ccccc2)C1` [Compound 62, {[2-chloro-3-(trifluoromethyl)phenyl]methyl} (2,2-diphenylethyl){3-[(1-methanesulfonylazetidin-3-yl)oxy]propyl}amine] came in with an EC50 (Homo sapiens, MeWo) of less than 1 µM. The Emax at 1 µM (Homo sapiens, MeWo, 1 μM) is greater than 80%. Besides, the Emax at 10 µM (Homo sapiens, MeWo, 10 μM) is greater than 80%.

In the case of `CN(C)C(=O)c1c(F)cc(OCCCN(Cc2cccc(C(F)(F)F)c2Cl)CC(c2ccccc2)c2ccccc2)cc1S(C)(=O)=O` [Compound 96, 4-[3-({[2-chloro-3-(trifluoromethyl)phenyl]methyl}(2,2-diphenylethyl)amino)propoxy]-2-fluoro-6-methanesulfonyl-N,N-dimethylbenzamide], the Emax at 1 µM (Homo sapiens, MeWo, 1 μM) was greater than 40%.

As for `O=C(O)Cc1cccc(OCCCN(Cc2cccc(OC(F)(F)C(F)F)c2)CC(c2ccccc2)c2ccccc2)c1` [Compound 25, 2-(3-{3[(2,2-diphenylethyl)({[3-(1,1,2,2-tetrafluoroethoxy)phenyl]methyl})amino]propoxy}phenyl)acetic acid], the Emax at 1 µM (Homo sapiens, MeWo, 1 μM) is greater than 40%. Under “Homo sapiens, MeWo, 10 μM”, the Emax at 10 µM was less than 40%.

`CC(C)(O)c1c(F)cc(OCCCN(Cc2cccc(C(F)(F)F)c2Cl)CC(c2ccccc2)c2ccccc2)cc1S(C)(=O)=O` [Compound 60, 2-{4-[3-({[2-chloro-3-(trifluoromethyl)phenyl]methyl}(2,2-diphenylethyl)amino)propoxy]-2-fluoro-6-methanesulfonylphenyl}propan-2-ol]: for the setting “Homo sapiens, MeWo”, the EC50 was less than 0.3 µM. Besides, for the setting “Homo sapiens, MeWo, 1 μM”, the Emax at 1 µM is greater than 40%. Further, the Emax at 10 µM (Homo sapiens, MeWo, 10 μM) is greater than 80%.

Regarding `O=C(O)Cc1cccc(OCCCN(Cc2cccc3c2OC(F)(F)O3)CC(c2ccccc2)c2ccccc2)c1` [Compound 26, 2[3-(3-{[(2,2-difluoro-2H-1,3-benzodioxol-4-yl)methyl](2,2-diphenylethyl)amino}propoxy)phenyl]acetic acid], the Emax at 1 µM (Homo sapiens, MeWo, 1 μM) was less than 40%. The Emax at 10 µM (Homo sapiens, MeWo, 10 μM) was less than 40%.

`CS(=O)(=O)c1cc(OCCCN(Cc2cccc(C(F)(F)F)c2Cl)CC(c2ccccc2)c2ccccc2)cc(F)c1C(=O)C(F)(F)F` [Compound 93, 1-{4-[3-({[2-chloro-3-(trifluoromethyl)phenyl]methyl}(2,2-diphenylethyl)amino)propoxy]-2-fluoro-6-methanesulfonylphenyl}-2,2,2-trifluoroethan-1-one]: the Emax at 1 µM (Homo sapiens, MeWo, 1 μM) was less than 40%. Moreover, where the note is “Homo sapiens, MeWo, 10 μM”, the Emax at 10 µM is less than 40%.

On to `CS(=O)(=O)NC(=O)Cc1cccc(OCCCN(Cc2cccc(C(F)(F)F)c2Cl)CC(c2ccccc2)c2ccccc2)c1` [Compound 2, 2-{3-[3-({[2-chloro-3-(trifluoromethyl)phenyl]methyl}(2,2-diphenylethyl)amino)propoxy]phenyl}-N-methanesulfonylacetamide], for which the Emax at 1 µM (Homo sapiens, MeWo, 1 μM) was greater than 40%. Further, where the note is “Homo sapiens, MeWo, 10 μM”, the Emax at 10 µM was greater than 40%.

With `CC(C)(O)c1cccc(OCCCN(Cc2cccc(C(F)(F)F)c2Cl)CC(c2ccccc2)c2ccccc2)c1` [Compound 4, 2-{3-[3-({[2-chloro-3-(trifluoromethyl)phenyl]methyl}(2,2-diphenylethyl)amino)propoxy]phenyl}propan-2-ol], the EC50 (Homo sapiens, MeWo) is less than 1 µM. The Emax at 1 µM (Homo sapiens, MeWo, 1 μM) was greater than 40%. Besides, the Emax at 10 µM (Homo sapiens, MeWo, 10 μM) was greater than 40%.

With `CS(=O)(=O)N1CCC[C@@H](OCCCN(Cc2cccc(C(F)(F)F)c2Cl)CC(c2ccccc2)c2ccccc2)C1` [Compound 63, {[2-chloro-3-(trifluoromethyl)phenyl]methyl}(2,2-diphenylethyl)(3-{[(3R)-1-methanesulfonylpiperidin-3-yl]oxy}propyl)amine], the EC50 is less than 3 µM. Besides, under “1 μM”, the “ApoE gene expression in relation to GW3965 at 1 μM (100%)” value is “+++ (“+++” > 80% ApoE induction)”. Besides, the “ApoE gene expression in relation to GW3965 at 1 μM (100%)” value (10 μM) is recorded as “+++ (“+++” > 80% ApoE induction)”.

The compound `CS(=O)(=O)c1cc(OCCCN(Cc2ccccc2)Cc2cccc(C(F)(F)F)c2Cl)cc(F)c1CO` [Compound 83, (4-{3-[benzyl({[2-chloro-3-(trifluoromethyl)phenyl]methyl})amino]propoxy}-2-fluoro-6-methanesulfonylphenyl) methanol] yielded an EC50 (Homo sapiens, MeWo) of less than 1 µM. Further, the Emax at 1 µM (Homo sapiens, MeWo, 1 μM) is greater than 80%.

Compound `C[C@H](CN(CCCOc1cc(F)c(CO)c(S(C)(=O)=O)c1)Cc1cccc(C(F)(F)F)c1Cl)c1ccccc1` [Compound 80, {4-[3-({[2-chloro-3-(trifluoromethyl)phenyl]methyl}[(2S)-2-phenylpropyl]amino)propoxy]-2-fluoro-6-methanesulfonylphenyl}methanol] displayed an EC50 (Homo sapiens, MeWo) of less than 1 µM. The Emax at 1 µM (Homo sapiens, MeWo, 1 μM) was greater than 80%. Besides, the Emax at 10 µM (Homo sapiens, MeWo, 10 μM) is greater than 80%.

On to `CS(=O)(=O)c1cc(OCCCN(Cc2cccc(C(F)(F)F)c2F)CC(c2ccccc2)c2ccccc2)cc(F)c1CO` [Compound 72, (4-{3-[(2,2-diphenylethyl)({[2-fluoro-3-(trifluoromethyl)phenyl]methyl})amino]propoxy}-2-fluoro-6-methanesulfonylphenyl)methanol], for which the Emax at 1 µM (Homo sapiens, MeWo, 1 μM) was greater than 80%. Moreover, the Emax at 10 µM (Homo sapiens, MeWo, 10 μM) is greater than 80%.

In turn, `CS(=O)(=O)c1cc(OCCCN(CCc2ccccc2)Cc2cccc(C(F)(F)F)c2Cl)cc(F)c1CO` [Compound 81, {4-[3-({[2-chloro-3-(trifluoromethyl)phenyl]methyl}(2-phenylethyl)amino)propoxy]-2-fluoro-6-methanesulfonylphenyl}methanol] came in with an EC50 (Homo sapiens, MeWo) of less than 0.3 µM. Moreover, the Emax at 1 µM (Homo sapiens, MeWo, 1 μM) was greater than 40%. Besides, the Emax at 10 µM (Homo sapiens, MeWo, 10 μM) is greater than 40%.

The compound `CC(CCN(Cc1cccc(C(F)(F)F)c1Cl)CC(c1ccccc1)c1ccccc1)Oc1cc(F)c(CO)c(S(C)(=O)=O)c1` (stereo not drawn) [Compound 59, (4-{[4-({[2-chloro-3-(trifluoromethyl)phenyl]methyl}(2,2-diphenylethyl)amino)butan-2-yl]oxy}-2-fluoro-6-methanesulfonylphenyl)methanol] had an EC50 (Homo sapiens, MeWo) of less than 0.3 µM. The Emax at 1 µM (Homo sapiens, MeWo, 1 μM) was greater than 40%. Further, the Emax at 10 µM (Homo sapiens, MeWo, 10 μM) was greater than 40%.

For `CS(=O)(=O)c1cc(OCCCN(Cc2cccc(C(F)(F)F)c2Cl)CC(c2ccccc2)c2ccccc2)cc(F)c1C(O)C(F)(F)F` (stereo not drawn) [Compound 95, 1-{4-[3-({[2-chloro-3-(trifluoromethyl)phenyl]methyl}(2,2-diphenylethyl)amino)propoxy]-2-fluoro-6-methanesulfonylphenyl}-2,2,2-trifluoroethan-1-ol], the Emax at 1 µM (Homo sapiens, MeWo, 1 μM) was greater than 40%.

On to `CS(=O)(=O)c1cc(OCCCN(Cc2cccc(C(F)(F)F)c2Cl)CC(c2ccccc2)c2ccccc2)cc(F)c1CN` [Compound 88, {4-[3-({[2-chloro-3-(trifluoromethyl)phenyl]methyl}(2,2-diphenylethyl)amino)propoxy]-2-fluoro-6-methanesulfonylphenyl}methanamine], for which, where the note is “Homo sapiens, MeWo, 1 μM”, the Emax at 1 µM was greater than 80%.

Regarding `CNC(=O)c1c(F)cc(OCCCN(Cc2cccc(C(F)(F)F)c2Cl)CC(c2ccccc2)c2ccccc2)cc1S(C)(=O)=O` [Compound 92, 4-[3-({[2-chloro-3-(trifluoromethyl)phenyl]methyl}(2,2-diphenylethyl)amino)-propoxy]-2-fluoro-6-methanesulfonyl-N-methylbenzamide], where the note is “Homo sapiens, MeWo, 1 μM”, the Emax at 1 µM was greater than 40%.

As to `O=C(O)Cc1cccc(OCCCN(Cc2cccc(OC(F)(F)F)c2)CC(c2ccccc2)c2ccccc2)c1` [Compound 24], the Emax at 1 µM (Homo sapiens, MeWo, 1 μM) was greater than 40%. Besides, the Emax at 10 µM (Homo sapiens, MeWo, 10 μM) is greater than 40%.

Turning to `CS(=O)(=O)c1cc(OCCCN(Cc2cccc(C(F)(F)F)c2Cl)CC(c2ccccc2)c2ccccc2)cc(F)c1CCO` [Compound 91, 2-{4-[3-({[2-chloro-3-(trifluoromethyl)phenyl]methyl}(2,2-diphenylethyl)amino)propoxy]-2-fluoro-6-methanesulfonylphenyl} ethan-1-ol], for the setting “Homo sapiens, MeWo, 1 μM”, the Emax at 1 µM is greater than 80%. Moreover, the Emax at 10 µM (Homo sapiens, MeWo, 10 μM) is greater than 40%.

Consider `CC(=O)c1c(F)cc(OCCCN(Cc2cccc(C(F)(F)F)c2Cl)CC(c2ccccc2)c2ccccc2)cc1S(C)(=O)=O` [Compound 87, 1-{4-[3-({[2-chloro-3-(trifluoromethyl)phenyl]methyl}(2,2-diphenylethyl)amino)propoxy]-2-fluoro-6-methanesulfonylphenyl}ethan-1-one], for which the Emax at 1 µM (Homo sapiens, MeWo, 1 μM) was greater than 40%.
